The results in this text go back to patent US7812165B2, “6-substituted pyridoindolone derivatives, production and therapeutic use thereof” (sanofi-aventis, priority 2004, dated 2010).

One may read the melting point as the temperature of the solid-liquid transition.

As for `CCON=Cc1ccc2[nH]c3c(cc(-c4ccc(OC)cc4OC)c(=O)n3C)c2c1` [Compound 7, 3-(2,4-Dimethoxyphenyl)-1-methyl-2-oxo-2,9-dihydro-1H-pyrido[2,3-b]indole-6-carbaldehyde O-ethyloxime], the melting point was determined as 295 °C.
